Experimental data as given in patent publication US7615534B2, “Antimicrobial peptides and use thereof” (Toagosei Co., Ltd, priority 2005, dated 2009).
Where no end group is shown, it is not given here.

test system: Staphylococcus aureus IFO 12732; type: cell-based; settings: 37° C., turbidity 24 hours later, diluents approximately 50 μM to approximately 0.39 μM, approximately 1×10^6 cells/mL
Experimental: Regarding the antimicrobial peptide in each of samples 1 to 14, the antimicrobial activities (minimum inhibitory concentration: MIC) with respect to gram-positive bacteria (Staphylococcus aureus IFO 12732) were determined, as described below, by a liquid medium dilution technique using a 96-well microplate. Staphylococcus aureus bacteria are inoculated from a preservation medium to an agar plate medium (“Muller Hinton Agar” manufactured by DIFCO), and thereafter stationary cultured for 18 hours at 37° C. Cultured bacteria were scratched twice using a disposable loop, and gathered bacteria were suspended in 5 mL of physiological saline. The OD660 value of the bacterial suspension derived from diluting the suspension 10 times with physiological saline was determined. The bacterial suspension used in the following tests was prepared by utilizing physiological saline, such that its OD660 value was 0.1 (therefore, bacteria concentration: approximately 2×10^7 cells/mL).
Each peptide sample derived by the above-described method was dissolved with sterile distilled water, which served as a carrier in the present example, to prepare a drug of predetermined concentration. More specifically, an appropriate amount of peptide sample were added into an Eppendorf (registered trademark) tube with an appropriate capacity, and such peptide sample were dissolved with sterile distilled water to prepare 2 mM of drug (peptide solution). The derived drug was appropriately diluted, and each diluent of approximately 50 μM to approximately 0.39 μM was prepared. Thereafter, each diluent was respectively introduced into the well of a polystyrene 96-round-bottom-well microplate prepared in advance. Next, 5 μL of the bacterial suspension having 0.1 OD660 was added (test bacteria quantity: approximately 1×10^6 cells/mL) respectively to each well containing the diluent of each concentration. The microplate was then incubated in an incubator at 37° C., and the presence of bacteria was evaluated based on the turbidity 24 hours later. The minimum drug concentration (peptide concentration), in which an increased in turbidity caused by bacteria was not detected at the time of measurement, was defined as MIC (unit: μM) in the present example.

Compound	Antimicrobial Activities (MIC) S. aureus (24 hours later)
CC[C@H](C)[C@H](NC(=O)[C@H](CC(C)C)NC(=O)[C@H](CCCNC(=N)N)NC(=O)[C@@H](N)C(C)C)C(=O)N[C@@H](CCCCN)C(=O)N[C@@H](CC(C)C)C(=O)N[C@@H](CC(C)C)C(=O)N[C@@H](Cc1ccc(O)cc1)C(=O)N[C@@H](CCC(N)=O)C(N)=O [Sample 1, VRLLKLLYQ]	50 µM
CC[C@H](C)[C@H](NC(=O)[C@H](CC(C)C)NC(=O)[C@H](CCCNC(=N)N)NC(=O)[C@@H](NC(=O)[C@@H](NC(=O)[C@H](CCCNC(=N)N)NC(=O)[C@@H](NC(=O)[C@H](CC(C)C)NC(=O)[C@H](CCC(=O)O)NC(=O)[C@@H](N)CCC(=O)O)[C@@H](C)CC)[C@@H](C)O)C(C)C)C(=O)N[C@@H](CCCCN)C(=O)N[C@@H](CC(C)C)C(=O)N[C@@H](CC(C)C)C(=O)N[C@@H](Cc1ccc(O)cc1)C(=O)N[C@@H](CCC(N)=O)C(N)=O [Sample 10, EELIRTVRLIKLLYQ]	25 µM
EDLLKAVRLIKFLYQ-NH2 [Sample 9, EDLLKAVRLIKFLYQ]	25 µM
EDLLRTVRLIKVLYQ-NH2 [Sample 13, EDLLRTVRLIKVLYQ]	50 µM
EELLKAVRLIKLLYQ-NH2 [Sample 8, EELLKAVRLIKLLYQ]	25 µM
ENLLKAIRLIKFLYQ-NH2 [Sample 14, ENLLKAIRLIKFLYQ]	6.25 µM
IRLIKFLYQ-NH2 [Sample 5, IRLIKFLYQ]	25 µM
KTKEGVKT (KTKEGVKT-NH2) [Comparative Sample 1, reference compound]	No Activity
RELLTAVRIIKILYQ-NH2 [Sample 12, RELLTAVRIIKILYQ]	25 µM
RLIKLLYQ-NH2 [Sample 6, RLIKLLYQ]	25 µM
RLIKLLYQRLIKLLYQ-NH2 [Sample 7, RLIKLLYQ RLIKLLYQ]	6.25 µM
RRAAQAVRLIKLLYQ-NH2 [Sample 11, RRAAQAVRLIKLLYQ]	6.25 µM
VRFIKFLYQ-NH2 [Sample 3, VRFIKFLYQ]	25 µM
VRLIKFLYQ-NH2 [Sample 2, VRLIKFLYQ]	12.5 µM

same assay, conditions: summary of Table 2

Compound	antimicrobial activity (in words)
KTKEGVKT (KTKEGVKT-NH2) [Comparative Sample 1, reference compound]	no antimicrobial activity was detected
